# Test results reported in publication PMC6891756, “Synthesis and Biological Evaluation of Novel Aminochalcones as Potential Anticancer and Antimicrobial Agents” (Molecules, 2019).
# How the values were obtained:
# Trichophyton rubrum = test system: Trichophyton rubrum; set-up: method as in doi:10.1007/s10600-018-2281-7; settings: cited from earlier work
# [1] = SRB assay, normal fibroblasts COS7; format: cell-based, green monkey; settings: green monkey, COS7 kidney fibroblasts (normal cell line), ND = not detected in the tested concentration range
# Method: (§1) Anticancer activity was evaluated using the sulforhodamine B assay (SRB) on four different human colon cancer cell lines: HT-29, LS180, LoVo and LoVo/DX and green monkey kidney fibroblasts COS7 (ATCC, Manassas, VA, USA). Cell lines HT-29 and COS7 were cultured in α-MEM medium (IIET PAS, Wrocław, Poland), LS180 in OptiMEM medium (IIET PAS), LoVo and LoVo/DX in mixture of α-MEM and OptiMEM medium (1:1 (v:v)). Each culture medium was supplemented with 10% fetal bovine serum, 2 mM glutamine, 100 μg·mL^−1 penicillin, 100 μg·mL^−1 streptomycin and 0.25 μg·mL^−1 amphotericin (all supplements purchased from Gibco (Paisley, UK). Cells were incubated at 37 °C, 5% CO2 in HeraCELL 150i incubator (Thermo Fisher Scientific, Waltham, MA, USA).
# (§2) For the SRB assay, cells were seeded onto 96-well plates (Sarstedt, Nümbrecht, Germany) at a density of 5·10^3/well and cultured overnight as described above. Then, the growth medium was gently removed and replaced with fresh medium, supplemented with aminochalcone derivatives in the concentration ranging from 1 µg·mL^−1 to 100 µg·mL^−1. All stock solutions were prepared in DMSO at a concentration of 10 mg·mL^−1. Cells were incubated for 48 h and then the SRB assay was performed as described previously. Each experiment was performed in quadruplicate. The final results were reported as the IC50 values calculated for three independent experiments. Cisplatin (Acros Organics, Waltham, MA, USA) and doxorubicin (Fisher BioReagents, Waltham, MA, USA) were used as positive controls of the test.
# [2] = test system: Alternaria alternata CBS1526; experiment: MIC evaluation (broth method), A. alternata; format: cell-based; settings: for MIC: Alternaria alternata, CBS1526, 48–72 h, read-out: Minimal inhibitory concentration A. alternata
# Method: (§3) Sterile 96-well microtiter plates (Sarstedt) with nutrient broth (for bacteria) (Biocorp) or YM medium (for yeast and filamentous fungi) were inoculated with a standardized cell suspension of bacteria and yeast or fungal spores of 10^5 cell·mL^−1, and supplemented with aminochalcones dissolved in DMSO. […] All analysis were conducted in triplicates. The plates were incubated at 30 °C (bacteria and yeast) or 25 °C (filamentous fungi) for 48–72 h. The results were measured with the Spark® Multimode Microplate Reader (Tecan, Männedorf, Switzerland) at a 560 nm wavelength. The minimal inhibitory concentration was defined as the lowest concentration of a tested compound that completely restricted the growth of the microorganism. In order to verify the obtained results, microbial cultures subjected to each concentration of aminochalcone were inoculated onto nutrient agar or YM plates and incubated as described above. The lack of growth on agar plate was a confirmation of the MIC of the tested compound. The resulting MIC values were compared with the reference substances: oxytetracycline (against bacteria), cycloheximide (against yeast) and nystatin (against fungi) (Sigma Aldrich).
# LoVo = experiment: SRB antiproliferative assay, LoVo; format: cell-based, human; settings: Homo sapiens, LoVo, 48 h, 1–100 µg·mL^−1, ND = not detected in the tested concentration range
# Method: as §1, §2
# [3] = test system: Staphylococcus aureus DSM799; experiment: Microbial growth curve screening, S. aureus; format: cell-based; settings: 0.1% (w/v); for ∆OD S. aureus: OD at 560 nm, control 1.67; for Lag-phase S. aureus: control 2.5 h
# Method: (§4) The antimicrobial screening tests were performed on two strains of bacteria: E. coli ATCC10536 and S. aureus DSM799, strain of yeast C. albicans DSM1386 and three strains of fungi: F. linii KB-F1, A. alternata CBS1526 and A. niger DSM1957. All microorganisms were obtained from the collection of the Faculty of Biotechnology and Food Microbiology, Wrocław University of Environmental and Life Sciences. The bacteria were cultured in nutrient broth (Biocorp, Warsaw, Poland), yeast and fungi in YM medium (3 g yeast extract, 3 g malt extract, 5 g bacteriological peptone and 10 g of glucose dissolved in 1 L of distilled water). The tests were carried out in 100-well microtiter plates. To each well 280 μL of culture medium, 10 μL of microorganism suspension and 10 μL of aminochalcone (1–18) dissolved in dimethyl sulfoxide (3% (w/v)) were added. The final concentration of the tested compound (1–18) was 0.1% (w/v). Each experiment were performed in 3 replications. The optical density of the cell suspension was measured on Bioscreen C (Automated Growth Curve Analysis System Lab System, Vantaa, Finland) at 560 nm automatically, at regular intervals of 30 min for 2–3 days. Cell cultures were maintained at 28 °C on a continuous shaker. To prepare the growth curves for each strain, the mean values of the absorbance in a function of time were used. The resulting antimicrobial activity was expressed as the increase of optical density (ΔOD) and was compared to that of the control cultures in the medium supplemented with dimethyl sulfoxide and also with reference substances: oxytetracycline (against bacteria), cycloheximide (against yeast) and nystatin (against fungi) (Sigma Aldrich).
# HT-29 = experiment: SRB antiproliferative assay, HT-29; format: cell-based, human; settings: Homo sapiens, HT-29; SRB, 48 h, 1–100 µg·mL^−1; ND = not detected in the tested concentration range
# Method: as §1, §2
# LS180 = experiment: SRB antiproliferative assay, LS180; format: cell-based, human; settings: Homo sapiens, LS180, 48 h, 1–100 µg·mL^−1, ND = not detected in the tested concentration range
# Method: as §1, §2
# LoVo/DX = experiment: SRB antiproliferative assay, LoVo/DX; format: cell-based, human; settings: Homo sapiens, LoVo/DX, 48 h, 1–100 µg·mL^−1, ND = not detected in the tested concentration range
# Method: as §1, §2
# [4] = test system: Aspergillus niger DSM1957; experiment: Microbial growth curve screening, A. niger; format: cell-based; settings: 0.1% (w/v); for ∆OD A. niger: OD at 560 nm, control 2.14; for Lag-phase A. niger: control 11.0 h
# Method: as §4
# Fusarium linii KB-F1 [5] = experiment: Microbial growth curve screening, F. linii; format: cell-based; settings: 0.1% (w/v); for ∆OD F. linii: OD at 560 nm, control 1.95; for Lag-phase F. linii: control 13.5 h
# Method: as §4
# Candida albicans DSM1386 [6] = experiment: Microbial growth curve screening, C. albicans; format: cell-based; settings: 0.1% (w/v); for ∆OD C. albicans: OD at 560 nm, control 1.58; for Lag-phase C. albicans: control 3.0 h
# Method: as §4
# [7] = test system: Escherichia coli ATCC10536; experiment: Microbial growth curve screening, E. coli; format: cell-based; settings: 0.1% (w/v); for ∆OD E. coli: OD at 560 nm, control 1.61
# Method: as §4
# [8] = test system: Staphylococcus aureus DSM799; experiment: MIC evaluation (broth method), S. aureus; format: cell-based; settings: 48–72 h, read-out: Minimal inhibitory concentration S. aureus
# Method: as §3
# Candida albicans DSM1386 [9] = experiment: MIC evaluation (broth method), C. albicans; format: cell-based; settings: DSM1386, broth method, 48–72 h, read-out: Minimal inhibitory concentration C. albicans
# Method: as §3
# [10] = test system: Escherichia coli ATCC10536; experiment: MIC evaluation (broth method), E. coli; format: cell-based; settings: 48–72 h, read-out: Minimal inhibitory concentration E. coli
# Method: as §3
# [11] = test system: Aspergillus niger DSM1957; experiment: MIC evaluation (broth method), A. niger; format: cell-based; settings: for MIC: Aspergillus niger, DSM1957, 48–72 h, read-out: Minimal inhibitory concentration A. niger
# Method: as §3
# [12] = test system: Alternaria alternata CBS1526; experiment: Microbial growth curve screening, A. alternata; format: cell-based; settings: 0.1% (w/v); for ∆OD A. alternata: OD at 560 nm, control 1.86; for Lag-phase A. alternata: control 16.5 h
# Method: as §4
# Fusarium linii KB-F1 [13] = experiment: MIC evaluation (broth method), F. linii; format: cell-based; settings: for MIC: Fusarium, KBF1, 48–72 h, read-out: Minimal inhibitory concentration F. linii
# Method: as §3
Compound,melting point [°C],IC50 at 48 h [1] [µg/mL],MIC [2] [µg/mL],IC50 (LoVo) [µg/mL],∆OD S. aureus [3],IC50 (HT-29) [µg/mL],IC50 (LS180) [µg/mL],IC50 (LoVo/DX) [µg/mL],∆OD A. niger [4],Lag-phase A. niger [4] [h],∆OD F. linii (Fusarium linii KB-F1 [5]),Lag-phase F. linii (Fusarium linii KB-F1 [5]) [h],∆OD C. albicans (Candida albicans DSM1386 [6]),Lag-phase C. albicans (Candida albicans DSM1386 [6]) [h],∆OD E. coli [7],MIC [8] [µg/mL],MIC (Candida albicans DSM1386 [9]) [µg/mL],MIC [10] [µg/mL],∆OD A. alternata [12],Lag-phase A. alternata [12] [h],other results
Nc1ccccc1C(=O)/C=C/c1cccc([N+](=O)[O-])c1 [2′-amino-3-nitro-chalcone],,,,,,,,,,,,,,,,,,,,,MIC80 Trichophyton rubrum (literature) (Trichophyton rubrum): 0.5 µg/mL
"CCc1ccc(/C=C/C(=O)c2ccc(N)cc2)cc1 [Compound 6, 4′-Amino-4-ethylchalcone]",125,7.16 ± 0.34,1,4.26 ± 0.19,0.87,3.61 ± 0.21,5.2 ± 0.3,3.68 ± 0.3,0.41,36.5,0.40,9.0,0.44,9.5,0.16,,,,,,Lag-phase S. aureus [3]: 28.0 h; Lag-phase E. coli ([7]; control 4.0 h): 3.5 h
"Nc1ccccc1C(=O)/C=C/c1ccc(C(=O)O)cc1 [Compound 7, 2′-Amino-4-carboxychalcone]",188 to 191,7.78 ± 0.75,0.5,7.68 ± 0.34,0.0,4.26 ± 0.13,7.86 ± 0.35,11.1 ± 0.44,,,0.37,26.0,,,0.0,0.125,0.125,0.125,,,MIC [11]: 0.125 µg/mL
"Nc1cccc(C(=O)/C=C/c2ccc([N+](=O)[O-])cc2)c1 [Compound 11, 3′-Amino-4-nitrochalcone]",166 to 168,2.3 ± 0.45,,1.34 ± 0.1,0.0,2.77 ± 0.49,2.89 ± 0.53,1.36 ± 0.06,0.83,39.5,0.0,,,,0.0,0.25,0.25,1000,0.55,42.0,MIC [11]: 1 µg/mL; MIC (Fusarium linii KB-F1 [13]): 0.5 µg/mL
"Nc1ccc(C(=O)/C=C/c2ccc([N+](=O)[O-])cc2)cc1 [Compound 12, 4′-Amino-4-nitrochalcone]",205 to 207,3.1 ± 0.5,,1.8 ± 0.1,0.0,3.42 ± 0.54,4.64 ± 0.54,2 ± 0.12,,,0.0,,0.13,12.0,0.0,0.25,,0.25,0.87,13.0,MIC (Fusarium linii KB-F1 [13]): 1 µg/mL
"Nc1ccccc1C(=O)/C=C/c1ccc(OCc2ccccc2)cc1 [Compound 13, 2′-Amino-4-benzyloxychalcone]",,,,,0,,,,0.78,21.5,0.32,16.0,,,0.0,0.25,0.5,0.25,0.92,13.0,
"COc1cc(/C=C/C(=O)c2ccccc2N)ccc1OCc1ccccc1 [Compound 16, 2′-Amino-4-benzyloxy-3-methoxychalcone]",,9.02 ± 0.17,,5.77 ± 0.38,0,4.85 ± 0.08,6.64 ± 0.29,4.59 ± 0.21,0.41,40.5,0,,0.66,8.5,0.0,0.5,,0.5,0.64,8.5,MIC (Fusarium linii KB-F1 [13]): 0.5 µg/mL
"COc1cc(/C=C/C(=O)c2cccc(N)c2)ccc1OCc1ccccc1 [Compound 17, 3′-Amino-4-benzyloxy-3-methoxychalcone]",38,3.45 ± 0.22,1,1.71 ± 0.13,0.36,2.9 ± 0.27,3.76 ± 0.38,1.77 ± 0.09,,,0.24,11.0,0.55,9.0,0.0,,,0.125,,,Lag-phase S. aureus [3]: 33.5 h; MIC [11]: 1 µg/mL
"C[C@@H]1[C@H](O)[C@@H](C)/C=C/C=C/CC/C=C/C=C/C=C/C=C/C(O[C@H]2O[C@H](C)[C@@H](O)[C@H](N)[C@@H]2O)CC2O[C@](O)(CC(O)C(O)CCC(O)CC(O)CC(O)CC(=O)O[C@H]1C)CC(O)C2C(=O)O (stereo partly drawn) [Nystatin, reference compound]",,,,,,,,,0.74,4.5,0.13,10.0,,,,,,,0.0,,Minimal inhibitory concentration A. alternata ([2]; 48–72 h): 1000 µg/mL; Minimal inhibitory concentration A. niger ([11]; 48–72 h): 250 µg/mL; Minimal inhibitory concentration F. linii (Fusarium linii KB-F1 [13]; 48–72 h): 500 µg/mL
OC(Cn1cncn1)(Cn1cncn1)c1ccc(F)cc1F [fluconazole],,,,,,,,,,,,,,,,,,,,,MIC80 Trichophyton rubrum (literature) (Trichophyton rubrum): 0.25 µg/mL
